The target of one data set is T1, Human PTP1B (1-321) (Homo sapiens, UniProt P18031).
T1 construct: Human PTP1B (1-321) was cloned from a human cDNA library; made in house; host or cells: E. coli
T1 sequence (P18031 1-321): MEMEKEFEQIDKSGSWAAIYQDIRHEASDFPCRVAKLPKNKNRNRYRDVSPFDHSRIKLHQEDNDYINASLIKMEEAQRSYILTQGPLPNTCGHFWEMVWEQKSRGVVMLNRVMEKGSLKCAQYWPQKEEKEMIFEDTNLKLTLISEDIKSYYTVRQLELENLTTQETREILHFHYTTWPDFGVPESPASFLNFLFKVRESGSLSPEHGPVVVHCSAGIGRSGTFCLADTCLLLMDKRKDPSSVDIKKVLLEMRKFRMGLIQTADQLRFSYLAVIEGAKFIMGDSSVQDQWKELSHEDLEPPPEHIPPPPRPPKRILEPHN
Kind of data set: In Vitro Inhibition of PTP1B (PTPase assay). The data set is classed as biochemical. Conditions: PTP1B inhibitory activity, procedures of Example 150. As for the experimental part:
Human PTP1B (1-321) was cloned from a human cDNA library using conventional molecular biology techniques. The cDNA sequence was identical to the published human PTP1B sequence (Accession number M33689). The protein was expressed and purified from E. coli as described by Barford D. et. al J. Mol Biol (1994) 239, 726-730.
The measurement of PTPase activity was carried out using one of two methods:
The first method for the measurement of PTP1B inhibitory activity a tyrosine phosphorylated peptide based on the amino acid sequence of insulin receptor tyrosine autophosphorylation site 1146 (TRDI(pY)E) was used as substrate. The reaction conditions were as follows:
PTP1B (0.5-2 nM) was incubated with compound for 15 min in buffer containing 37.5 mM Bis-Tris buffer pH 6.2, 140 mMNaCl, 0.05% BSA and 2 mM DTT. The reaction was started by the addition of 50 μM substrate. After 20 min at room temperature (22-25° C.), the reaction was stopped with KOH and the amount of free phosphate measured using Malachite Green as previously described (Harder et al. 1994 Biochem J. 298; 395).
The second method was used for the measurement of general PTPase inhibitory activity across a panel of PTPases the substrate (6,8-difluoro-4-methylumbelliferyl phosphate (DiFMUP; from Molecular Probes) was used at the Km for each enzyme. The buffer conditions were identical as in the Malachite Green assay. The reaction was stopped with KOH. In this case the dephosphoryated product becomes fluorescent and the fluorescense read (Excitiation: […]/Emmission: 460 nM).
In turn, `CNc1nc(N)nc2cc(-c3ccccc3C)ccc12` [Example 6, N4-Methyl-7-o-tolyl-quinazoline-2,4-diamine] returned an IC50 of 3150 nM.

`CNc1nc(N)nc2cc(-c3c(C)cccc3C)ccc12` [Example 8, 7-(2,6-Dimethyl-phenyl)-N4-methyl-quinazoline-2,4-diamine] registered a half-inhibitory concentration (IC50) of 790 nM.

The molecule `Cc1cccc(C)c1-c1ccc2c(N(C)C)nc(N)nc2c1` [Example 9, 7-(2,6-Dimethyl-phenyl)-N4,N4-dimethyl-quinazoline-2,4-diamine] displayed an IC50 of 14000 nM.

In turn, `CCNc1nc(N)nc2cc(-c3c(C)cccc3C)ccc12` [Example 14, 7-(2,6-Dimethyl-phenyl)-N4-ethyl-quinazoline-2,4-diamine] displayed an IC50 of 2480 nM.

In turn, `CNc1nc(N)nc2cc(-c3c(OC)cccc3OC)ccc12` [Example 21, 7-(2,6-Dimethoxy-phenyl)-N4-methyl-quinazoline-2,4-diamine] returned an IC50 of 3500 nM.

With `CNc1nc(N)nc2cc(-c3c(Cl)cccc3Cl)ccc12` [Example 24, 7-(2,6-Dichloro-phenyl)-N4-methyl-quinazoline-2,4-diamine], half-maximal inhibition (IC50) was put at 1110 nM.

Consider `Cc1cccc(C)c1-c1ccc2c(NCCO)nc(N)nc2c1` [Example 36, 2-[2-Amino-7-(2,6-dimethyl-phenyl)-quinazolin-4-ylamino]-ethanol], for which the IC50 is 3170 nM.

The molecule `Nc1nc(NCCO)c2ccc(-c3ccccc3F)cc2n1` [Example 41, 2-[2-Amino-7-(2-fluoro-phenyl)-quinazolin-4-ylamino]-ethanol] returned an IC50 of 19000 nM. This IC50 is about 6-fold higher than that of the molecule before.

`Cc1ccccc1-c1ccc2c(NCCO)nc(N)nc2c1` [Example 43, 2-(2-Amino-7-o-tolyl-quinazolin-4-ylamino)-ethanol] returned an IC50 of 6020 nM.

`Nc1nc(NCCO)c2ccc(-c3ccccc3C(F)(F)F)cc2n1` [Example 57, 2-[2-Amino-7-(2-trifluoromethyl-phenyl)-quinazolin-4-ylamino]-ethanol] returned an IC50 of 3340 nM.

For `CNc1nc(N)nc2cc(-c3ccccc3SC)ccc12` [Example 58, N4-Methyl-7-(2-methylsulfanyl-phenyl)-quinazoline-2,4-diamine], half-maximal inhibition (IC50) required 1010 nM.

Regarding `CNc1nc(N)nc2cc(-c3ccc(F)cc3C)ccc12` [Example 69, 7-(4-Fluoro-2-methyl-phenyl)-N4-methyl-quinazoline-2,4-diamine], the IC50 came to 4040 nM. This IC50 lies about 4-fold higher than the previous one.

Take `CNc1nc(N)nc2cc(-c3ccccc3[S+](C)[O-])ccc12` (stereo not drawn) [Example 71, 7-(2-Methanesulfinyl-phenyl)-N4-methyl-quinazoline-2,4-diamine]: half-maximal inhibition (IC50) was put at 2780 nM. The IC50 values of the last two molecules are within 1.5-fold of each other.

Consider `CNc1nc(N)nc2cc(-c3ccccc3S(C)(=O)=O)ccc12` [Example 72, 7-(2-Methanesulfonyl-phenyl)-N4-methyl-quinazoline-2,4-diamine], for which the IC50 was determined as 1440 nM.

As to `CSc1ccccc1-c1ccc2c(NCCO)nc(N)nc2c1` [Example 75, 2-[2-Amino-7-(2-methylsulfanyl-phenyl)-quinazolin-4-ylamino]-ethanol], the concentration for half-maximal inhibition (IC50) was determined as 4180 nM.

Consider `CCS(=O)(=O)c1ccccc1-c1ccc2c(NC)nc(N)nc2c1` [Example 82, 7-(2-Ethanesulfonyl-phenyl)-N4-methyl-quinazoline-2,4-diamine], for which the IC50 worked out at 1390 nM.

As to `CNc1nc(N)nc2cc(-c3c(C)cccc3Cl)ccc12` [Example 89, 7-(2-Chloro-6-methyl-phenyl)-N4-methyl-quinazoline-2,4-diamine], 1460 nM corresponded to half-maximal inhibition (IC50).

Take `CNc1nc(N)nc2cc(-c3ccccc3S(=O)(=O)N(C)C)ccc12` [Example 120, 2-(2-aAmino-4-methylamino-quinazolin-7-yl)-N,N-dimethyl-benzenesulfonamide]: the IC50 was 1600 nM.

For the molecule `CCNS(=O)(=O)c1ccccc1-c1ccc2c(NC)nc(N)nc2c1` [Example 125], the IC50 amounted to 1890 nM.

Consider `CNc1nc(N)nc2cc(-c3ccccc3S(=O)(=O)NC)ccc12` [Example 126, N-methyl-2-(2-amino-4-methylamino-quinazolin-7-yl)-benzenesulfonamide], for which inhibition was half-maximal at 1940 nM (IC50).

Test system in another data set: not given
Assay: not given
Details: not given
In the case of `CNc1nc(N)nc2cc(-c3ccccc3S(=O)(=O)NC)ccc12` [Example 126, N-methyl-2-(2-amino-4-methylamino-quinazolin-7-yl)-benzenesulfonamide], the melting point fell in the range of 316 to 317 °C.

What is called IC50 is the point on the concentration scale where inhibition reaches its midpoint. Lower therefore signals inhibition by little substance. The melting point is the temperature, or range, at which the solid turns liquid.
